From patent publication US6391921B1 (priority 2000, dated 2002)

What was measured:
SYK = molecular target: T1, SYK (Homo sapiens, UniProt P43405); experiment: SYK tyrosine kinase assay; assay type: biochemical; details: 1 hour exposure
T1 construct: made in house; host or cells: Sf21 insect cells (baculovirus)
Procedure: Sf21 (IPLB-SF21-AE) cells derived from the ovarian tissue of the fall armyworm Spodotera frugiperda, were obtained from Invitrogen and maintained at 26-28° C. in Grace's insect cell medium supplemented with 10% FBS and 1.0% antibiotic/antimycotic (GIBCO-BRL). Stock cells were maintained in suspension at 0.2-1.6×10^6/ml in 600 ml total culture volume in 1 L Bellco spinner flasks at 60-90 rpm. Cell viability was maintained at 95-100% as determined by trypan blue dye exclusion.
Sf21 cells were infected with a baculovirus expression vector for BTK or SYK, as previously described (refs 18 and 19). […]
Following electrophoresis, kinase gels were dried onto Whatman 3M filter paper and subjected to phosphoimaging on a Molecular Imager (Bio-Rad, Hercules, Calif.) as well as autoradiography on film. […] For each drug concentration, a BTK or SYK kinase activity index was determined by comparing the ratios of the kinase activity in phosphorimager units (PIU) and density of the protein bands in densitometric scanning units (DSU) to those of the baseline sample and using the formula: Activity Index=[PIU of kinase band/DSU of BTK/SYK protein band]test sample: [PIU of kinase band/DSU of BTK/SYK protein band]baseline control sample.

RBL-2H3 mast cells = experiment: IgE receptor/FcεRI-mediated mast cell degranulation (β-hexosaminidase release); assay type: cell-based, rat
Procedure: Monolayers of RBL-2H3 rat mast cells were sensitized with monoclonal anti-DNP IgE antibody (0.24 mg/ml) for 1 hour at 37° C. in a 48-well tissue culture plate. Unbound IgE was removed by washing the cells with phosphate buffered saline. After washing, PIPES-buffered saline containing 1 mM calcium chloride was added to the monolayers of the RBL-2H3 cells. The cells were challenged with 20 ng/ml DNP-BSA for 30 minutes at 37° C. The plate was centrifuged at 200 g for 10 minutes at 4° C. and supernatants were saved. […]
To study the effects of compound D-58, RBL-2H3 cells were incubated with compound D-58 at the indicated concentrations or vehicle for 1 hour prior to antigen challenge. Mast cell degranulation (β-hexosaminidase release, % of total) was assessed by measuring the β-hexosaminidase levels in cell free supernatants and Triton X-100 solubilized pellets using the formula: β-hexosaminidase release, % of total=100×(β-hexosaminidase level in supernatant/β-hexosaminidase level in supernatant+solubilized pellet). […]
In order to examine the effects of compound D-58 on IgE receptor/FcεRI-mediated mast cell activation and mediator release, RBL-2H3 mast cells were exposed to increasing concentrations of this ethanone or vehicle prior to challenge with antigen (DNP-BSA). […] Mast cell β-hexosaminidase release (FIG. 3A) and LTC4 release (FIG. 3B) were measured. […]

skh-1 mice = experiment: UVB-irradiated skin edema (skinfold thickness); assay type: in vivo; details: 180 mJ/cm^2 UVB
Procedure: Mice (skh-1) were treated daily with 20 mg/kg i.p. bolus injections of compound D-58 from day −2 (i. e. 2 days prior to UVB exposure) until the termination of the experiment. Anesthetized mice received UVB radiations to a 2.0 cm^2 area on their dorsal surface. This area was painted either with the test compound (1.5 mg/cm^2) in drug receiving mice, or with vehicle in control mice 15 minutes before irradiation. The distance between UVB lamps and surface receiving irradiation was 20 cm. The final radiation dose received by skh-1 hairless mice was 180 mJ/cm^2 which is approximately four times higher than the minimal erythema dose (MED) (ref 29) in these mice. Skinfold thickness of the back of the mice was recorded prior to, and on each day after UVB exposure for five days with a digital thickness gauge (Mitutoyo Co., Plainfield, N.J.) which measures the skinfold thickness in a 0-10 mm range with an accuracy of 0.015 mm. […] For this purpose female, hairless, albino skh-1 mice were exposed to 180 mJ/cm^2 UVB light and their skinfold thickness, as a parameter of acute inflammation, was measured on days 1 through 5 following irradiation. […] The data points represent the mean±SEM values (n=5 mice). *p<0.05 and **p<0.001 compared to vehicle-treated UVB irradiated controls were determined by Student's t test.

COc1ccc(CC(=O)c2c(O)cc(O)cc2O)cc1 [Compound D-58]
IC50 (SYK; first experiment, FIG. 1B): 36.9 µM
IC50 (SYK; second experiment, FIG. 1C): < 10 µM
IgE/antigen induced mast cell degranulation (β-hexosaminidase) (RBL-2H3 mast cells; 1 hour prior to DNP-BSA challenge, FIG. 3A): inhibited
mediator release induced by compound alone (RBL-2H3 mast cells; incubation without antigen challenge (data not shown)): did not induce mediator release
development of skin edema after UVB exposure (skh-1 mice; 20 mg/kg i.p. daily from day −2 plus 1.5 mg/cm^2 topical, FIG. 7): effectively inhibited
skinfold thickness (skh-1 mice; by 72 hours post irradiation): at baseline control levels
